Measurements published in patent publication US20040086514A1, “Novel helicobacter pylori-binding substances and use thereof” (priority 1999, published 2004).
“Also recorded” adds a separate entry of the source.

How the values were obtained:
Helicobacter pylori [1] = assay: Inhibition of binding on thin-layer chromatograms with soluble oligosaccharides; conditions: for inhibition of binding of Helicobacter pylori to lactotetraosylceramide: 1 h room temperature, strain 17875 (FIG. 5)
Procedure: As a test for possible inhibition of binding by soluble sugars 35S-labeled Helicobacter pylori strains 002 and 032 were incubated for 1 h at room temperature with various concentrations (0.05 mg/ml, 0.1 mg/ml and 0.2 mg/ml) of lactotetraose (Accurate Chem. & Sci. Corp., Westbury, N.Y.) or lactose (J. T. Baker Chem. Co., Phillipsburg, N.J.) in PBS. Thereafter the chromatogram binding assay was performed as described above, using chromatograms with separated gangliotetraosylceramide, lactotetraosylceramide and reference glycosphingolipids.
The ability of soluble oligosaccharides to interfere with the binding of Helicobacter pylori to glycosphingolipids on thin-layer plates was examined by incubating radiolabelled Helicobacter pylori strain 17875 with free lactotetraose (0.1 mg/ml) or lactose (0.2 mg/ml) in PBS for 1 h at room temperature before the chromatogram binding assay of the suspensions. […] The lanes were: Galβ3GalNAcβ4Galβ4Glcβ1Cer (gangliotetraosylceramide), 4 μg (lane 1); Galβ3GlcNAcβ3Galβ4Glcβ1Cer (lactotetraosylceramide), 4 μg (lane 2); Galβ4GlcNAcβ3Galβ4Glcβ1Cer (neolactotetraosylceramide), 4 μg (lane 3). The glycosphingolipids were separated on aluminium-backed silica gel 60 HPTLC plates, using chloroform/methanol/water (60:35:8, by volume) as solvent system, and the binding assay was performed as described under “Materials and Methods”, using 2% BSA and 0.1% Tween 20 in PBS as coating buffer. Autoradiography was for 12 h.

Helicobacter pylori [2] = assay: Chromatogram binding assay: 35S-labeled Helicobacter pylori to glycosphingolipids on thin-layer plates; conditions: for binding of Helicobacter pylori in mixtures of reference glycosphingolipids: strain 17875, non-acid fractions of dog small intestine, guinea pig small intestine, mouse faeces (FIG. 1); for binding of Helicobacter pylori to major acid glycosphingolipids of epithelial cells of human stomach: strains 002 and 032, identified tentatively by mobility on thin-layer chromatograms; for dependence of binding on other lipids or bile salts (Tween 20, deoxycholate) in the thin-layer chromatogram assay: coating buffer with or without detergent (FIG. 1)

OC[C@H]1O[C@@H](O[C@H]2[C@H](O)[C@@H](O)C(O)O[C@@H]2CO)[C@H](O)[C@@H](O)[C@H]1O (stereo partly shown) [lactose, reference compound]
inhibition of binding of Helicobacter pylori to lactotetraosylceramide (Helicobacter pylori [1]; bacteria preincubated with 0.2 mg/ml in PBS): no inhibitory effect

gangliotriaosylceramide [reference compound]
binding of Helicobacter pylori in mixtures of reference glycosphingolipids (Helicobacter pylori [2]): binding

NeuAcα3Galβ4Glcβ1Cer [GM3, reference compound]
binding of Helicobacter pylori to major acid glycosphingolipids of epithelial cells of human stomach (Helicobacter pylori [2]): No binding
binding of Helicobacter pylori to major acid glycosphingolipids of epithelial cells of human stomach (Helicobacter pylori [2]; listed as GM3 ganglioside): non-existent

maltoheptaose(red) -HDA [reference compound]
binding activity with regard to Helicobacter pylori in TLC-overlay assay (Helicobacter pylori [2]; 4-hexadecylaniline (HDA) derivatives, compared with lactotetraosylceramide glycosphingolipid): totally inactive

sulfatide [reference compound]
binding of Helicobacter pylori to major acid glycosphingolipids of epithelial cells of human stomach (Helicobacter pylori [2]): No binding; also recorded: non-existent

lactosylceramide [reference compound]
binding of Helicobacter pylori in mixtures of reference glycosphingolipids (Helicobacter pylori [2]): binding

Galβ3GlcNAcβ3Galβ4Glcβ1Cer [No. 2]
Helicobacter pylori isolates expressing the lactotetraosylceramide binding capacity (Helicobacter pylori [2]; 66 isolates of Table I, lactotetraosylceramide of human meconium): 86%
recognition by sialic acid-binding H. pylori strain CCUG 17874 (Helicobacter pylori [2]; FIG. 11 B): recognised
recognition by H. pylori strain CCUG 17875 devoid of sialic acid binding capacity (Helicobacter pylori [2]; FIG. 11 C): recognised
effect of bacterial growth conditions on binding (Helicobacter pylori [2]; bacteria grown on agar and in broth, for 12 h and for 120 h): not affected
dependence of binding on other lipids or bile salts (Tween 20, deoxycholate) in the thin-layer chromatogram assay (Helicobacter pylori [2]): only when other lipids or bile salts, such as Tween 20 or deoxycholate, are used
binding by babAlA2 mutant strain (Helicobacter pylori [2]; gene coding for the Le^b-binding adhesin inactivated, data not shown): Binding
number of Helicobacter pylori isolates expressing the lactotetraosylceramide binding capacity (Helicobacter pylori [2]; of 66 isolates of Table I, lactotetraosylceramide of human meconium): 57

CC(=O)N[C@H]1[C@H](O[C@H]2[C@@H](O)[C@@H](CO)O[C@@H](O[C@H]3[C@H](O)[C@@H](O)C(O)O[C@@H]3CO)[C@@H]2O)O[C@H](CO)[C@@H](O)[C@@H]1O[C@@H]1O[C@H](CO)[C@H](O)[C@H](O)[C@H]1O (stereo partly shown) [lactotetraose, Galβ3GlcNAcβ3Galβ4Glc]
inhibition of binding of Helicobacter pylori to lactotetraosylceramide (Helicobacter pylori [1]; bacteria preincubated with 0.1 mg/ml in PBS): inhibited the binding
blocking of binding of H. pylori to gangliotetraosylceramide (Helicobacter pylori [1]; preincubation with soluble oligosaccharide (FIG. 5)): able to block binding

Galβ3GlcNAcβ3Galβ4Glcβ1Cer
binding activity relative to lactotetraosylceramide from human meconium (Helicobacter pylori [2]; ceramide exclusively sphingosine and non-hydroxy 16:0 and 24:0 fatty acids, not shown): as active as the lactotetraosylceramide from human meconium

Galβ3GalNAcβ4Galβ4Glcβ1Cer [gangliotetraosylceramide]
dependence of binding on other lipids or bile salts (Tween 20, deoxycholate) in the thin-layer chromatogram assay (Helicobacter pylori [2]): only marginally is affected
binding of Helicobacter pylori in mixtures of reference glycosphingolipids (Helicobacter pylori [2]): binding
